From patent US20260083826A1, “NEW SYNTHETIC DRUGS FOR TREATING ALZHEIMER'S DISEASE” (OKINAWA INSTITUTE OF SCIENCE AND TECHNOLOGY SCHOOL …, priority 2022, published 2026) come the findings set out here.

“Also recorded” adds a separate entry of the source.

Assay [1] has as its system calyx of Held presynaptic terminals. In words: Membrane capacitance measurements (SV exo-endocytosis) at calyx of Held presynaptic terminals. It counts as cell-based, mouse. Particulars: for Effect on h-tau-induced endocytic slowing: 0.25 mM co-loaded with WT h-tau 20 μM; for Presynaptic Ca2+ current charge (QCa) / Exocytic capacitance magnitude / Endocytic rate (endocytic capacitance change): 20 μM; for Presynaptic Ca2+ current charge (QCa): 20-30 min after patch membrane rupture; for Exocytic capacitance magnitude: vs controls.

The target in another assay is porcine tubulin (Sus scrofa, UniProt P02550+P02554). In words: Tubulin polymerization assay (MT assembly). It counts as biochemical.
porcine tubulin, sequence (P02550 whole entry, the tested form may be a part): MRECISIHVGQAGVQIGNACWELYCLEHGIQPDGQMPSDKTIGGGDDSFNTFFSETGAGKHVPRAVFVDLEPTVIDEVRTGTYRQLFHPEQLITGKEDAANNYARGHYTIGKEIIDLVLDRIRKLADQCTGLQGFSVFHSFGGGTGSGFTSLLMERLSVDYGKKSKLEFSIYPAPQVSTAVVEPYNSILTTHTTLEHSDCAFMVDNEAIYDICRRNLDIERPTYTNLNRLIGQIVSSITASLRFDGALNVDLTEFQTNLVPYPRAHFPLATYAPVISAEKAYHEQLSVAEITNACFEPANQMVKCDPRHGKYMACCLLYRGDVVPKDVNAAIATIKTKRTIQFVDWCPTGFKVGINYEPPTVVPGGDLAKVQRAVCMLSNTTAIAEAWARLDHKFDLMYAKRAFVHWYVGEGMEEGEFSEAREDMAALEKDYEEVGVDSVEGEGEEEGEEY
porcine tubulin, sequence (P02554 whole entry, the tested form may be a part): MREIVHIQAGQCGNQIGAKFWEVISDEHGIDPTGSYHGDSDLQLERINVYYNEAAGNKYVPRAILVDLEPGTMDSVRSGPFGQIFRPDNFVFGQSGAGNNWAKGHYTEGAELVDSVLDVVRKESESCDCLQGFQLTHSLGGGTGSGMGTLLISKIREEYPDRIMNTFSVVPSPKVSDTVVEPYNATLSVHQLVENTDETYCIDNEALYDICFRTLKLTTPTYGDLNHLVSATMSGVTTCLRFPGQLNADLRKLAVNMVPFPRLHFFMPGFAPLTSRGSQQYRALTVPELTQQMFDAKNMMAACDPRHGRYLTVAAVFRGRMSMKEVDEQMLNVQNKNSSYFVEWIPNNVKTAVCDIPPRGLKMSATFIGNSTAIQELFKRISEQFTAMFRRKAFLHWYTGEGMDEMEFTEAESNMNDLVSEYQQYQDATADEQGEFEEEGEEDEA
For assay [2], the system named is calyx of Held presynaptic terminals. Description: Simultaneous pre- and postsynaptic whole-cell recording of EPSCs at the calyx of Held in brainstem slices. It counts as cell-based, mouse. Particulars: for Prevention of WT h-tau-induced EPSC rundown: 20 μM co-loaded with WT h-tau 20 μM; for EPSC amplitude at 30 min (normalized to baseline): 1 μM intra-terminal; for Effect on h-tau-induced EPSC rundown: 1 mM co-loaded with h-tau 20 μM, 30 min after infusion; for EPSC amplitude 30 min after infusion (normalized to baseline) / EPSC amplitude remaining 30 min after infusion (normalized to baseline): 20 μM loaded in presynaptic terminal.

For a further assay, the target named is T1, MT-dynamin 1 binding (Sus scrofa, UniProt P02550+P02554).
T1 construct: His
T1 sequence (P02550 whole entry): as the sequence (P02550 whole entry, the tested form may be a part) above
T1 sequence (P02554 whole entry): as the sequence (P02554 whole entry, the tested form may be a part) above
Description: MT-dynamin binding assay (microtubule spin-down, SDS-PAGE, SYPRO Orange). On the set-up: species or system human. As to the method:
Microtubule binding assay was performed using Microtubule Binding Protein Spin Down Assay Kit (cat #BK029, Cytoskeleton Inc., Denver, CO, USA). Briefly, 20 μl of 5 mg/ml tubulin in general tubulin buffer (GTB; 80 mM PIPES pH7.0, 2 mM MgCl2, 0.5 mM EGTA) supplemented with 1 mM GTP were polymerized by adding 2 μl of cushion buffer (80 mM PIPES pH7.0, 1 mM MgCl2, 1 mM EGTA, 60% glycerol), and incubated at 35° C. for 20 min. Microtubules were stabilized with 20 μM Taxol. Taxol-stabilized microtubules (2.5 μM) and dynamin 1 ([…]) were incubated in GTB with or without 1 mM peptide at room temperature for 30 min. After incubation, the 50 μl of mixture was loaded on top of 100 μl cushion buffer supplemented with 20 μM Taxol, and then centrifuged at 100,000×g for 40 min at room temperature. After the ultracentrifugation, 50 μl of supernatant was taken and mixed with 10 μl of 5×sample buffer. The resultant pellet was resuspended with 50 μl of 1×sample buffer. Twenty μl of each sample was analyzed by SDS-PAGE and stained with SYPRO Orange. Protein bands were visualized using FLA-3000 (FUJIFILM Co. LTD, Tokyo, Japan).
MTs were prepared from tubulin and stabilized by taxol. And then taxol stabilized MTs and Dyn1 were incubated with/without PHDP5. Using ultracentrifugation to separate supernatant (unbinding protein) and pellet (bound protein) fractions. Samples were analyzed by SDS-PAGE gel and visualized by SYPRO Orange staining. […] This may cause by competitive binding of Dyn1/PHDP5 to MTs (FIG. 6A).
We changed the incubation order that MTs were mixed with PHDP5 and then incubated with Dyn1.
For optimizing the condition of PHDP5 to block MT-dynamin binding, we have tried different PHDP5 concentration and incubation period with Dyn1. […] Without PHDP5, there is no difference between each time point (FIG. 7B). […] We prepared several FITC-labeled PHDP5 peptide candidates to improve the brain barrier permeability of PHDP5 (Table 3). The N-terminus of the construct was protected with β-alanine (BA) and labeled with FITC. Under the same condition, several FITC-labeled PHDP5 candidates and its' scrambled control were also tested.

Another assay deals with β3-tubulin. Description: Immunofluorescence quantification of MTs in calyceal terminals. The class given is cell-based, mouse. As to the method: (§1) The following primary antibodies were used: anti-β3-tubulin (Synaptic System, #302304), anti-human Tau (BioLegend, #806501), anti-dynamin (Invitrogen, PA1-660). Secondary antibodies were goat IgG conjugated with Alexa Fluor 488, 568, or 647 (Thermo Fisher Scientific). Acute brainstem slices (175 μm in thickness, see below) were fixed with 4% paraformaldehyde in PBS for 30 min at 37° C. and overnight at 4° C. On the following day, slices were rinsed three times in PBS, permeabilized in PBS containing 0.5% Triton X-100 (Tx-100; Nacalai Tesque) for 30 min and blocked in PBS containing 3% bovine serum albumin (BSA; Sigma-Aldrich) and 0.05% Tx-100 for 45 min. Slices were incubated overnight at 4° C. with primary antibody diluted in PBS 0.05% Tx-100, 0.3% BSA. On the next day, slices were rinsed three times with PBS containing 0.05% Tx-100 for 10 min and incubated with corresponding secondary antibody diluted in PBS 0.05% Tx-100, 0.3% BSA for 1 h at room temperature (RT). […] For quantifying fluorescence intensity levels, the region of interest was delimited around calyceal terminals, and background fluorescence was subtracted using ImageJ software.
(§2) The monomeric GTPases dynamin 1 and 3 play critical roles in the endocytic fission of SVs (50-52). […] To test this hypothesis, we performed immunofluorescence microscopy and image analysis to quantify MTs and dynamin. […]

The next assay has as its system dynamin1. Description: Immunofluorescence quantification of bound-form dynamin in calyceal terminals. The class given is cell-based, mouse. As to the method:
as §1, §2

Setting [3] is: 30 min after patch membrane rupture.
The mark [4] stands for this setting: 30 min after patch membrane rupture, listed as h-tau.

For the molecule `O=C1NC(=S)N(c2cccc(Br)c2)C(=O)/C1=C/c1ccco1` [SMFH2, reference compound], the “Effect on SV endocytosis” value in assay [1] (calyceal terminals in slices from post-hearing mice (P13-14)) is “slightly prolonged SV endocytosis, but this effect was statistically insignificant”.

In the case of `COC(=O)Nc1nc2ccc(C(=O)c3cccs3)cc2[nH]1` [nocodazole, reference compound], the “Effect on exo-endocytosis, loaded alone” value in assay [1] (20 μM alone) was “no effect”. Moreover, the “Prevention of h-tau-induced block of SV endocytosis” value in assay [1] (20 μM co-loaded with h-tau 20 μM, 25 min after loading) is “fully prevented”. At porcine tubulin, the “Concentration at which maximal inhibition of h-tau-dependent MT assembly is reached” value was found to be 20 µM. For the same molecule, the “Inhibition of h-tau-dependent MT assembly” value at porcine tubulin (nocodazole 1, 10, 20, 50 μM, ON4R h-tau (20 μM)) is “inhibited h-tau-dependent MT assembly in a concentration-dependent manner; also recorded: Concentration-dependent inhibitory effects”. In addition, the “Effect on EPSC amplitude, loaded alone” value in assay [2] (20 μM alone) is reported as “no effect”. Also, the results for the “Prevention of WT h-tau-induced EPSC rundown” value in assay [2] and in assay [2] (listed as Nocodazole) were “fully prevented” and “prevented EPSC rundown”, respectively.

For `CC(=O)O[C@H]1C(=O)[C@@]2(C)[C@H]([C@H](OC(=O)c3ccccc3)[C@]3(O)C[C@H](OC(=O)[C@H](O)[C@@H](NC(=O)c4ccccc4)c4ccccc4)C(C)=C1C3(C)C)[C@]1(OC(C)=O)CO[C@@H]1C[C@@H]2O` [taxol, reference compound], the “MT assembly in in vitro tubulin polymerization assay” value on porcine tubulin (1 μM) is on record as “assembles tubulins into MTs; also recorded: MT assembly”. Also, the “EPSC amplitude at 30 min (normalized to baseline)” value in assay [2] (EPSCs evoked at 0.1 Hz) turned out to be 104±3.0%; in assay [2] (EPSCs evoked at 0.1 Hz, listed as Taxol), 105±3.0%; in assay [2] (EPSCs evoked at 1 Hz), 41±12%; in assay [2] (EPSCs evoked at 1 Hz, listed as Taxol), 41.4±12%.

Turning to “PHDP5: synthetic dodecapeptide corresponding to amino acids 560-571 of dynamin 1 (PH domain); inhibits MT-dynamin interaction (EKKYMLSVDNLK)”, the “Effect on exo-endocytic capacitance changes, loaded alone” value in assay [1] (0.25 mM alone) is on record as “no effect”. Besides, the “Effect on h-tau-induced endocytic slowing” value in assay [1] was “significantly attenuated”; in assay [1] (listed as DPHP5), “significant difference”. Further, the “Inhibition of MT-dynamin 1 interaction” value in the assay with MT-dynamin 1 binding (1 mM peptide) is “significantly inhibited; also recorded: strongly inhibits”. Also, the “% of Dyn1 in pellet fraction” value is “lower” with MT-dynamin 1 binding (MTs incubated with 1 mM, shorter incubation period with Dyn1 (10 min)); “lower” in the assay with MT-dynamin 1 binding (MTs incubated with 3 mM compared with 1 mM); “lower” in the assay with MT-dynamin 1 binding (MTs incubated with 3 mM, incubation with Dyn1 for 5 min); “decreased” in the assay with MT-dynamin 1 binding (MTs mixed with PHDP5 first, then incubated with Dyn1); “no difference” with MT-dynamin 1 binding (taxol stabilized MTs and Dyn1 incubated together with/without PHDP5). Also, the “Dynamin 1 in precipitates (ppt fraction) relative to total amount” value with MT-dynamin 1 binding (peptide added to MT and dynamin 1, 22.6±2.4% with MT without peptide) stood at 6.3±2.4%. Besides, the “Effect on EPSC amplitude, loaded alone” value is listed as “did not affect” in assay [2] (1 mM alone) and “no effect” in assay [2] (1 mM alone, listed as DPHP5). The “Effect on h-tau-induced EPSC rundown” value in assay [2] was “significantly attenuated”; in assay [2] (listed as DPHP5) it was “attenuated”.

Turning to “WT h-tau: wild-type recombinant human tau of ON4R isoform expressed in E. coli”, the entries for the “Presynaptic Ca2+ current charge (QCa)” value in assay [1] and in assay [1] (listed as h-tau) were “not different from controls; also recorded: remained unchanged” and “without a change”, respectively. Further, the Exocytic capacitance magnitude entry in assay [1] (20 min after patch membrane rupture) is on record as “not different from controls; also recorded: remained similar to controls”; in assay [1] (setting [3]), “significantly less than controls”; in assay [1] (setting [4]), “significant reduction”. Also, the “Endocytic rate (endocytic capacitance change)” value is recorded as “significant slowing; also recorded: significantly prolonged” in assay [1] (20 min after patch membrane rupture, vs non-loading controls); “further prolonged” in assay [1] (setting [3]); “further slowed” in assay [1] (setting [4]). For the same molecule, the “MT assembly in in vitro tubulin polymerization assay” value with porcine tubulin (10 μM) was “MT assembly”. In the assay on β3-tubulin (20 μM whole-cell infusion), the “Increase in MT (β3-tubulin) signals vs terminals without loading” value worked out at 2.1 fold. Also, in the assay with β3-tubulin (WT h-tau loading), the “β3-tubulin immunofluorescence intensity vs control terminals” value is listed as “significantly increased”. Further, the “Miniature EPSC amplitude and frequency” value in assay [2] (20 μM intra-terminal loading) was “neither amplitude nor frequency was affected”. Further, the “EPSC amplitude 30 min after infusion (normalized to baseline)” value in assay [2] (EPSCs evoked at 0.1 Hz) turned out to be 85±12%; in assay [2] (EPSCs evoked at 0.1 Hz, listed as h-tau), 85%+12. Moreover, the “EPSC amplitude remaining 30 min after infusion (normalized to baseline)” value stood at 65±5% in assay [2] (EPSCs evoked at 1 Hz) and 23±9% in assay [2] (EPSCs evoked at 1 Hz, listed as h-tau). In the assay on dynamin1 (20 μM whole-cell infusion), the “Increase in dynamin signal vs terminals without loading” value is recorded as 2.6 fold. Further, the “dynamin1 immunofluorescence intensity vs control terminals” value in the assay on dynamin1 (WT h-tau loading) is reported as “significantly increased”.

B1: del-MTBD: human tau deletion mutant lacking the MT-binding domain (amino acid 244 to 367) (protein)
chain: MAEPRQEFEVMEDHAGTYGLGDRKDQGGYTMHQDQEGDTDAGLKAEEAGIGDTPSLEDEAAGHVTQARMVSKSKDGTGSDDKKAKGADGKTKIATPRGAAPPGQKGQANATRIPAKTPPAPKTPPSSGEPPKSGDRSGYSSPGSPGTPGSRSRTPSLPTPPTREPKKVAVVRTPPKSPSSAKSRLNKKIETHKLTFRENAKAKTDHGAEIVYKSPVVSGDTSPRHLSNVSSTGSIDMVDSPQLATLADEVSASLAKQGL
On to B1, for which the “MT assembly in in vitro tubulin polymerization assay” value with porcine tubulin (10 μM, listed as Del-MTBD) is given as “lacking tubulin polymerization capability”. For the same molecule, the “Effect on EPSC amplitude, loaded alone” value in assay [2] (20 μM alone) is given as “no effect”.
